Test results published in the NIST ThermoML archive (doi:10.1016/j.tca.2015.01.022).

Experiment: molar heat capacity at constant pressure
Details: 101.33 kPa, Small (less than 1 g) adiabatic calorimetry

CCCCCCCC[n+]1ccn(C)c1.F[B-](F)(F)F [1-methyl-3-octylimidazolium tetrafluoroborate]
Details	molar heat capacity at constant pressure [J/K/mol]
148.21 K, Glass	270.7
149.81 K, Crystal	251.1
150 K, Crystal	251.3
150 K, Glass	273.5
150.08 K, Crystal	251.3
150.11 K, Glass	273.6
151.75 K, Crystal	253.4
152 K, Glass	276.6
152.02 K, Crystal	253.6
153.69 K, Crystal	255.7
153.91 K, Glass	279.6
153.96 K, Crystal	255.9
155.63 K, Crystal	258
155.81 K, Glass	282.6
155.9 K, Crystal	258.3
157.57 K, Crystal	260.3
157.72 K, Glass	285.4
157.84 K, Crystal	260.6
159.5 K, Crystal	262.7
159.62 K, Glass	288.5
159.77 K, Crystal	263
160 K, Crystal	263.2
160 K, Glass	289.3
161.44 K, Crystal	265.2
161.53 K, Glass	291.6
161.71 K, Crystal	265.3
162.37 K, Glass	293
163.37 K, Crystal	267.5
163.44 K, Glass	294.7
163.64 K, Crystal	267.7
164.32 K, Glass	296.1
165.31 K, Crystal	270
165.35 K, Glass	297.8
165.57 K, Crystal	270.2
166.17 K, Glass	299.2
167.24 K, Crystal	272.5
167.26 K, Glass	301.2
167.5 K, Crystal	272.7
168.01 K, Glass	302.3
169.16 K, Crystal	275
169.17 K, Glass	304.3
169.43 K, Crystal	275.2
169.85 K, Glass	305.4
170 K, Crystal	276
170 K, Glass	305.6
171.09 K, Crystal	277.5
171.09 K, Glass	307.7
171.36 K, Crystal	277.7
171.68 K, Glass	308.8
173 K, Glass	311.1
173.01 K, Crystal	280.1
173.28 K, Crystal	280.3
173.52 K, Glass	311.9
174.93 K, Crystal	282.6
174.93 K, Glass	314.5
175.2 K, Crystal	282.9
175.35 K, Glass	315.3
176.85 K, Crystal	285.4
176.85 K, Glass	318.4
177.12 K, Crystal	285.7
177.17 K, Glass	319.3
178.76 K, Crystal	288.3
178.77 K, Glass	322.6
179 K, Glass	322.9
179.03 K, Crystal	288.3
180 K, Crystal	290
180 K, Glass	325.4
180.67 K, Crystal	291.1
180.7 K, Glass	327.1
180.82 K, Glass	327.4
180.94 K, Crystal	291.4
182.58 K, Crystal	293.9
182.63 K, Glass	332.5
182.85 K, Crystal	294.2
184.43 K, Glass	338.1
184.48 K, Crystal	296.7
184.56 K, Glass	339
184.75 K, Crystal	297
186.22 K, Glass	345.5
186.38 K, Crystal	299.8
186.48 K, Glass	348
186.65 K, Crystal	299.8
187.99 K, Glass	355.9
188.27 K, Crystal	302.6
188.39 K, Glass	361.5
188.55 K, Crystal	302.6
189.72 K, Glass	373.1
190 K, Crystal	305
190 K, Glass	380.4
190.16 K, Crystal	305.4
190.27 K, Liquid	387.4
190.44 K, Crystal	305.4
191.35 K, Liquid	408.9
192.04 K, Crystal	308.3
192.05 K, Liquid	444.4
192.32 K, Crystal	308.5
192.85 K, Liquid	463.5
193.84 K, Liquid	466.1
193.92 K, Crystal	311.4
194.2 K, Crystal	311.6
194.36 K, Liquid	466.3
195.76 K, Liquid	466.6
195.8 K, Crystal	314.5
196.08 K, Crystal	314.7
197.67 K, Crystal	317.3
197.7 K, Liquid	465.8
197.95 K, Crystal	317.8
199.54 K, Crystal	320.7
199.64 K, Liquid	464.9
199.82 K, Crystal	320.9
200 K, Crystal	320
200 K, Liquid	464.9
201.46 K, Crystal	323.8
201.58 K, Liquid	464.7
201.81 K, Crystal	324.6
203.44 K, Crystal	327.4
203.53 K, Liquid	464.1
203.91 K, Crystal	328.6
205.42 K, Crystal	331.1
205.47 K, Liquid	463.8
206.02 K, Crystal	332.2
207.4 K, Crystal	334.5
207.42 K, Liquid	463.5
208.11 K, Crystal	335.9
209.36 K, Liquid	463.5
209.37 K, Crystal	338.1
210 K, Crystal	335
210 K, Liquid	463.4
210.2 K, Crystal	339.8
211.3 K, Liquid	463.2
211.34 K, Crystal	342.1
212.28 K, Crystal	344.3
213.25 K, Liquid	463.5
213.29 K, Crystal	346
214.36 K, Crystal	348
215.19 K, Liquid	463.2
215.24 K, Crystal	350
216.42 K, Crystal	352.2
217.13 K, Liquid	463.5
217.18 K, Crystal	355
218.47 K, Crystal	357.6
219.08 K, Liquid	463.8
219.11 K, Crystal	360.4
220 K, Crystal	349.9
220 K, Liquid	463.8
220.51 K, Crystal	362.9
221.02 K, Crystal	365.7
221.02 K, Liquid	463.8
222.53 K, Crystal	369.1
222.93 K, Crystal	371.1
222.96 K, Liquid	464.1
224.55 K, Crystal	375
224.82 K, Crystal	376.7
224.9 K, Liquid	464.7
226.56 K, Crystal	381
226.7 K, Crystal	382.4
226.85 K, Liquid	464.9
228.55 K, Crystal	387.4
228.58 K, Crystal	388.3
228.8 K, Liquid	465.8
230 K, Crystal	364.9
230 K, Liquid	465.8
230.44 K, Crystal	395.1
230.53 K, Crystal	394.5
230.75 K, Liquid	466.6
232.29 K, Crystal	402.4
232.49 K, Crystal	402.1
234.12 K, Crystal	411.7
234.44 K, Crystal	412
235.93 K, Crystal	423.8
236.36 K, Crystal	424.6
237.7 K, Crystal	441.5
238.24 K, Crystal	445.5
239.43 K, Crystal	472
240 K, Crystal	379.9
240 K, Liquid	468.9
240.06 K, Crystal	487.8
245.81 K, Crystal	388.6
245.81 K, Liquid	471
248.34 K, Liquid	472
249.07 K, Liquid	472.3
250 K, Liquid	472.6
250.32 K, Liquid	472.8
251 K, Liquid	473.1
252.27 K, Liquid	473.7
252.93 K, Liquid	473.9
254.22 K, Liquid	474.5
254.87 K, Liquid	474.8
256.17 K, Liquid	475.4
256.8 K, Liquid	475.6
258.12 K, Liquid	476.2
258.74 K, Liquid	476.5
260 K, Liquid	477.3
260.07 K, Liquid	477.3
260.67 K, Liquid	477.6
262.02 K, Liquid	478.2
262.61 K, Liquid	478.5
263.97 K, Liquid	479.3
264.54 K, Liquid	479.6
265.92 K, Liquid	480.1
266.48 K, Liquid	480.4
267.87 K, Liquid	481.3
268.42 K, Liquid	481.6
269.82 K, Liquid	482.1
270 K, Liquid	482.4
270.35 K, Liquid	482.4
271.77 K, Liquid	483.2
272.29 K, Liquid	483.5
273.73 K, Liquid	484.4
274.23 K, Liquid	484.7
275.68 K, Liquid	485.2
276.16 K, Liquid	485.5
277.63 K, Liquid	486.6
278.1 K, Liquid	486.6
279.58 K, Liquid	487.8
280 K, Liquid	487.7
281.53 K, Liquid	488.9
283.48 K, Liquid	489.7
285.44 K, Liquid	490.9
287.39 K, Liquid	492
289.34 K, Liquid	493.1
290 K, Liquid	493.2
291.29 K, Liquid	494.2
293.24 K, Liquid	495.4
295.19 K, Liquid	496.5
297.15 K, Liquid	497.3
298.15 K, Liquid	497.8
299.1 K, Liquid	498.5
300 K, Liquid	498.9
301.05 K, Liquid	499.6
303 K, Liquid	500.7
304.95 K, Liquid	502.1
306.9 K, Liquid	503
308.86 K, Liquid	504.4
310 K, Liquid	504.8
310.81 K, Liquid	505.2
312.76 K, Liquid	506.4
314.71 K, Liquid	507.5
316.67 K, Liquid	508.9
318.62 K, Liquid	510
320 K, Liquid	510.9
320.57 K, Liquid	511.1
322.53 K, Liquid	512.3
324.48 K, Liquid	513.4
326.44 K, Liquid	514.8
328.39 K, Liquid	515.9
330 K, Liquid	517.1
330.34 K, Liquid	517.1
332.3 K, Liquid	518.5
334.25 K, Liquid	519.9
336.21 K, Liquid	521
338.16 K, Liquid	522.4
340 K, Liquid	523.6
340.11 K, Liquid	523.8
342.07 K, Liquid	524.7
344.02 K, Liquid	526.4
345.98 K, Liquid	527.2
347.93 K, Liquid	528.9
349.89 K, Liquid	530.3
350 K, Liquid	530.3
351.85 K, Liquid	531.7
353.8 K, Liquid	533.1
355.76 K, Liquid	534.2
357.71 K, Liquid	535.7
359.66 K, Liquid	536.8
360 K, Liquid	537.1
361.61 K, Liquid	538.2
363.57 K, Liquid	539.3
365.52 K, Liquid	540.7
367.47 K, Liquid	542.4
370 K, Liquid	544.2
